Source: US7645903B2, “Use of urea variants as affinity ligands” (GE Healthcare Bio-Sciences AB, priority 2002, dated 2010)

How the values were obtained:
[1] = system: human Fab of κ-type; assay: STD-NMR binding test (saturation transfer difference NMR screening); parameters: key to NMR signal, conc 1 / NMR signal, conc 2 / NMR signal, conc 3 / NMR signal, Conc 1 (directed library) / NMR signal, Conc 2 (directed library): 0 no; 1 weak; 2 strong signal; conditions: for NMR signal, conc 2: 100 nM protein; for NMR signal, conc 2 / NMR signal, conc 1 / NMR signal, conc 3: 0.5 mM ligand; for NMR signal, conc 1: 500 nM protein; for NMR signal, conc 3: 20 nM protein; for NMR signal at the first dilution of antibody concentration: conc 2, 100 nM; for binder designation from NMR screening: from signals at 500, 100 and 20 nM antibody
Experimental: (§1) All NMR experiments were performed at 298 K on a Bruker Avance 500 MHz spectrometer. The 1D saturation transfer difference method (STD-NMR) was used as screening assay (Mayer M. and Meyer B. 1999. Characterisation of Ligand Binding by Saturation Transfer Difference NMR Spectroscopy. Angew. Chem., Int. Ed. 38: 1784-1788). […] The two spectra are recorded in the same experiment in an interleaved fashion. […] It has been shown that the method is capable of detecting ligands with dissociation constants between 10^−3 and 10^−8 M (Mayer M. and Meyer B. 1999. Characterisation of Ligand Binding by Saturation Transfer Difference NMR Spectroscopy. Angew. Chem, Int. Ed. 38: 1784-1788). The strength of the STD-NMR signal depends upon several factors including protein size, offset and duration of the on-resonance irradiation, the dissociation rate constant and the excess of ligand. The STD-NMR method is advantageous in that the detection limits can be tuned for binding by varying the protein concentration while keeping the ligand concentration constant. Under such conditions, at higher protein concentrations the weak to medium binders are detected, whereas at lower protein concentrations only medium binders are detected. For instance, it has been shown before for another enzyme system that both μM and mM binders were detected at a protein concentration of 35 μM whereas only μM binders were detected at protein concentrations of 1 μM and 100 nM (Peng J. W., Lepre C. A., Fejzo J., Abdul-Manan N. and Moore J. M. 2001, Nuclear Magnetic Resonance-Based Approaches for Lead Generation in Drug Discovery, Methods in Enzymology. 338: 202-230). It should be noted that the signal intensity at one specific protein concentration should not be taken as a direct measure of the binding strength. […] On the other hand the signal of the μM binder became even stronger than before (Peng J. W., Lepre C. A., Fejzo J., Abdul-Manan N. and Moore J. M. 2001, Nuclear Magnetic Resonance-Based Approaches for Lead Generation in Drug Discovery, Methods in Enzymology. 338: 202-230).
(§2) Here, three different antibody concentrations were used, namely, 0.5 μM, 100 nM and 20 nM. The antibody used was a human Fab of κ-type. In all cases ligands were tested one-by-one. On-resonance irradiation was set at 0 ppm and off-resonance irradiation was set at 40 ppm. Irradiation time in each scan was 2 s and 16K data points were collected with 1024 scans in total. Compounds for testing were dissolved in DMSOd6 to a concentration of 50 mM and 5 μL of the concentrated ligand solution was added to 495 μL buffer solution. The samples thus consisted of 0.5 mM ligand, 20 mM phosphate buffer, 100 mM NaCl and […] in D2O at pD 7.5, uncorrected reading on pH-meter. Compounds were initially tested for binding with 0.5 μM antibody. Interesting ligands were further tested with protein concentrations of 100 or 20 nM. A one-dimensional ^1H-spectrum was acquired first as reference spectrum and subsequently a saturation transfer difference (STD) spectrum was acquired. Each analysis took 60 minutes on the spectrometer.

[2] = STD-NMR control in the absence of target antibody; parameters: key to NMR signal, ctrl: 0 no; 1 weak; 2 strong signal; conditions: for NMR signal, ctrl: absence of target antibody
Experimental: as §1, §2
These compounds were designated as weak binders. […] Of these, three compounds AB—0000860, AB—0000910 and AB—0001250 showing a clear signal (2 in table 1) were further analysed at a second dilution of antibody concentration (conc 3 in table 1).

With `OCC(Oc1ccccc1)c1ccccc1` (centres unmarked) [AB_0000810, 2-phenoxy-2-phenyl-1-ethanol] the “NMR signal, conc 2” value [1] was 1, the “NMR signal, conc 1” value [1] was 2 and the “NMR signal, ctrl” value [2] was 0.

For `O=C1CN(c2ccccc2)C(=O)N1c1ccccc1` [AB_0000860, 1,3-diphenylimidazolidine-2,4-dione], the “NMR signal, conc 3” value [1] was 1, the “NMR signal, conc 2” value [1] was 2 and the “NMR signal, conc 1” value [1] was 2. For the same molecule, the “NMR signal at the first dilution of antibody concentration” value (from here on “NMR signal at the first dilution”) [1] was “clear signal”, the “binder designation from NMR screening” value [1] was “strong binders” and the “NMR signal, ctrl” value [2] was 0.

In the case of `COc1ccc(CC(C)=O)cc1Br` [AB_0000910, 3-bromo-4-methoxyphenylacetone], the “NMR signal, conc 3” value [1] is reported as 0, the “NMR signal, conc 2” value [1] is reported as 2 and the “NMR signal, conc 1” value [1] is reported as 2. For the same molecule, the “NMR signal at the first dilution” value [1] was “clear signal”, the “NMR signal at a second dilution of antibody concentration” value ([1]; conc 3, 20 nM) was “did not show any signal” and the “NMR signal, ctrl” value [2] was 0.

For `COC(=O)C1OC1c1cc(Cl)ccc1OC` (centres unmarked) [AB_0001240, methyl 3-(5-chloro-2-methoxyphenyl)-2,3-epoxypropionate], the “NMR signal, conc 2” value [1] was 1, the “NMR signal, conc 1” value [1] was 1 and the “NMR signal, ctrl” value [2] was 0.

In the case of `CC(C)=CC1=C(O)C(=O)c2ccccc2C1=O` [AB_0001040, 2-hydroxy-3-(2-methyl-1-propenyl)-1,4-naphthoquinone], the “NMR signal, conc 2” value [1] is reported as 1, the “NMR signal, conc 1” value [1] is reported as 1 and the “NMR signal, ctrl” value [2] is reported as 0.

For `N#CCc1ccc(C(=O)c2ccccc2F)s1` [AB_0001010, 2-[5-(2-fluorobenzoyl)-2-thienyl]acetonitrile], the “NMR signal, conc 3” value [1] was 2, the “NMR signal, conc 2” value [1] was 2 and the “NMR signal, conc 1” value [1] was 2. The “binder designation from NMR screening” value [1] was “false positive”, the “NMR signal, ctrl” value [2] was 1 and the “NMR signal in the absence of target antibody” value ([2]; no antibody) was “positive NMR signal”.

In the case of `Clc1ccc(OCc2noc(CSc3ccccn3)n2)cc1` [AB_0001290, 3-[(4-chlorophenoxy)methyl]-5-[(2-pyridylthio)methyl]-1,2,4-oxadiazole], the “NMR signal, conc 2” value [1] is reported as 1, the “NMR signal, conc 1” value [1] is reported as 2 and the “NMR signal, ctrl” value [2] is reported as 0.

With `CN(C)C(=O)N(C)c1ccc(Cl)c(Cl)c1` [AB_0001250, 1-(3,4-dichlorophenyl)-1,3,3-trimethylurea] the “NMR signal, conc 3” value [1] was 1, the “NMR signal, conc 2” value [1] was 2 and the “NMR signal, conc 1” value [1] was 2. For the same molecule, the “NMR signal at the first dilution” value [1] was “clear signal”, the “binder designation from NMR screening” value [1] was “strong binders” and the “NMR signal, ctrl” value [2] was 0.

For `c1ccc(-c2nnc3ccccc3n2)cc1` [AB_0000600, 3-phenyl-1,2,4-benzotriazine], the “NMR signal, conc 2” value [1] was 1, the “NMR signal, conc 1” value [1] was 1 and the “NMR signal, ctrl” value [2] was 0.

For `CC1CN=C(SCc2ccccc2)N1.Cl` (centres unmarked) [AB_0001080, 2-(benzylthio)-5-methyl-4,5-dihydro-1h-imidazol-3-ium chloride], the “NMR signal, conc 1” value [1] was 0.

With `O=C1SC(Br)C(=O)N1c1ccccc1` (centres unmarked) [AB_0000880, 5-bromo-3-phenyl-thiazolidine-2,4-dione] the “NMR signal, conc 1” value [1] was 0.

In the case of `Cc1cc(C)nc(SCC(=O)Nc2ccc(F)c(Cl)c2)n1` [AB_0000580, n1-(3-chloro-4-fluorophenyl)-2-[(4,6-dimethylpyrimidin-2-yl)thio]acetamide], the “NMR signal, conc 2” value [1] is reported as 0 and the “NMR signal, conc 1” value [1] is reported as 1.

For `S=C(Oc1ccccn1)c1csc(C2COc3ccccc3O2)n1` (centres unmarked) [AB_0001260, 2-pyridyl 2-(2,3-dihydro-1,4-benzodioxin-2-yl)-1,3-thiazole-4-carbothioate], the “NMR signal, conc 1” value [1] was 0.
